This is an account of results in patent US20040127567A1, “Novel methods for treating disorders in which docosahexaenoic acid (DHA) levels are affected” (Beth Israel Deaconess Medical Center, Inc., priority 1998, published 2004).

Assay [1] concerns CFTR−/− mice. Kind of assay: Fatty acid levels (GC/MS) in pancreas and lung cells of CFTR−/− mice fed n-3 fatty acids. The assay is classed as in vivo, mouse. The settings on record: CFTR-/- mice, 40 mg/day for one week (fish oil: dose equivalent to 40 mg DHA, 60 mg EPA, 15 mg LNA); mean ± S.D. The protocol:
Mouse pancreatic acinar and lung cell suspensions were prepared from wild type (n=3) and CFTR−/− mice (n=3) by enzymatic and mechanical dissociation. In addition, brain, kidney, heart, spleen, and blood were sonicated in 0.3M sucrose buffer. Membrane lipids were extracted from cell and organ preparations with 20 volumes of chloroform-methanol 2:1 (v/v), transmethylated with 0.5 mL of 0.1 N methanolic-NaOH/BF3 reagent, and the resulting fatty acid methyl esters analyzed by gas chromatography/mass spectrometry (GC/MS). In a different set of experiments, lipids were fractionated by aminopropyl column chromatography into triglycerides, cholesterol esters, and phosphoglycerides and the fatty acid composition of each lipid class determined by a combination of enzymatic hydrolysis, transmethylation, and GC/MS.
Cystic fibrosis (UNC strain) and wild type mice (12-20 grams body weight) were fed with a complete liquid enteral formulation (Peptamen™, Nestle Clinical Nutrition, Inc.) supplemented with different quantities of the DHA-containing formulation Neuromins (Nature's Way Products Inc., Springville, Utah). DHA content in the Neuromins formulation was 100 mg per 500 mg of formulation. Mice were fed once a day at about 11 a.m., seven days a week with 20 ml of Peptamen™ supplemented with the various amounts of either Neuramins, free DHA (Sigma Chemical Co., MO) or DHA-ethyl ester (Nu-Check-Prep, Inc. MN) ranging from 0.5 mg/day of DHA to 40 mg/day of DHA.
Lung and acinar cells were isolated from a CF mouse fed with DHA formula (mouse-1, 40 mg/day DHA). The pellets (0.5 mL for pancreas cell homogenate and 0.6 mL for lung cell homogenate) were extracted with 3 mL of chloroform-methanol 2:1 (v/v). The resulting emulsion was vortexed, centrifuged at 800 g for 3 min., and the lower phase aspirated. The residual upper phase was partitioned again with 3 mL of chloroform-methanol 2:1 (v/v), the lower phase aspirated and both lower phases combined. Fractions were evaporated to dryness, processed for fatty acid methyl esters (FAME) and were analyzed by GC-MS analysis. Aliquots of 10 μL of 17:0 methyl ester solution in hexane [1 μg/μL] were added to the samples after methylation.
(§1) Lung and acinar cells were isolated from a CF and a wild-type (WT) mouse fed with DHA formula. The pellets (0.5 mL for pancreas cell homogenate and 0.6 mL for lung cell homogenate) were extracted with 3 mL of chloroform-methanol 2:1 (v/v). The resulting emulsion was vortexed, centrifuged at 800 g for 3 min., and the lower phase aspirated. The residual upper phase was partitioned again with 3 mL of chloroform-methanol 2:1 (v/v), the lower phase aspirated and both lower phases combined. Fractions were evaporated to dryness, processed for FAME and analyzed by GC-MS. Aliquots of 20 μL of 17:0 in chloroform-methanol 2:1 (v/v) were added to the samples before methylation.
as §1, with “from” for “from a”, “mice” for “and a wild-type (WT) mouse”, “different doses of DHA, i.e., 0.5 mg/day, 2.0 mg/day, 10 mg/day or 40 mg/day DHA.” for “DHA formula.”, “pellets” for “pellets (0.5 mL for pancreas cell homogenate and 0.6 mL for lung cell homogenate)”, “30” for “20”
CFTR−/− mice were prepared as described in Example 1. Both CFTR−/− mice and wild type mice were euthanized with carbon dioxide, and cell suspensions from pancreas and lung isolated.

The test system of assay [2] is CFTR−/− mice. The assay is described as above. The assay is classed as in vivo, mouse. The settings on record: CFTR-/- mice, 40 mg/day for one week (fish oil: dose equivalent to 40 mg DHA, 60 mg EPA, 15 mg LNA); mean ± S.D. This is another data set of the same source.

As to `CC/C=C\C/C=C\C/C=C\C/C=C\C/C=C\CCCC(=O)O` [EPA, Eicosapentaenoic acid, reference compound], the “DHA level in pancreas” value in assay [1] came out at 2.2 ± 0.4 nmol/mg. In addition, the “AA level in pancreas” value in assay [2] amounted to 5.1 ± 0.3 nmol/mg.
